These results are taken from US11247971B2, “Small molecule inhibitors of lactate dehydrogenase and methods of use thereof” (THE UNITED STATES OF AMERICA, AS REPRESENTED BY THE …, priority 2014, dated 2022).

Data set [1] can be described thus: pharmacokinetics after oral administration in mice. The data set is classed as in vivo. The following applies: male CD1 mice, oral 10 mg/kg.
A further data set deals with MiaPaCa2 cells. Put plainly: cell-based HT Lactate assay, colorimetric/fluorometric detection (inhibition of lactate production). The conditions noted are these: class symbols. The method, then: Cell-based HT Lactate assay is a miniaturized Biovision Lactate Colorimetric/Fluorometric Assay Kit (Cat #K607-100). The assay is roughly a 3.5 hour assay run in a 1536 plate format. Cell number optimization should be run for each cell line to achieve an optimal number in which lactate production equals roughly 90% of the standard curve range. Cell number per well optimization has been performed with the following cell lines: MiaPaCa2—500 cells/well, SNU398—500 cells/well, and P493—500 cells/well.
The lactate activity in Table 8 is represented by 0 to 3 pluses as follows: […]; ++1-10 μM; +10-57 μM; and −>57 μM.

For another data set, the target named is Human LDHA (Homo sapiens (Human), UniProt P00338). Put plainly: human LDHA primary biochemical assay. The conditions noted are these: read-out: Inhibitory activity IC50, assay of Example 1, activity level classes.

From the text for Human LDHA: This example describes a human LDHA primary biochemical assay employed in the characterization of a compound of formula (I) in an embodiment of the invention.
Test compounds were placed in a Greiner Bio-One (Monroe, N.C.) 1536-well black solid bottom assay plate. 200 millimolar (mM) Tris HCl, pH 7.4, 100 micromolar (μM) EDTA and 0.01% TWEEN-20™, final concentration, was used as the assay buffer. The LDHA reagent was 2 nanomolar (nM) Human LDHA (Meridian Life Science, Inc., Memphis, Tenn.), final concentration, in assay buffer. The substrate reagent was 0.06 mM NADH and 0.2 mM sodium pyruvate, final concentration, in assay buffer. […] The inhibition of LDHA activity was measured by fluorescence emission.

`CCOC(=O)c1csc(-n2nc(-c3cccc(-c4ccccc4)c3)c(Cc3ccc(S(N)(=O)=O)cc3)c2C(F)(F)F)n1` [Compound 141, ethyl 2-(3-([1,1′-bipheny]-3-yl)-4-(4-sulfamoylbenzyl)-5-(trifluoromethyl)-1H-pyrazol-1-yl)thiazole-4-carboxylate]: the “F (fraction of the dose that enters systemic circulation)” value in data set [1] was 69%. In data set [1] (plasma, LC/MS/MS), this compound displayed an AUClast of 2409 ng·h/mL and a Cmax of 851 ng/mL. With “2-(3-(3′-amino-[1,1′-biphenyl]-3-yl)-4-(4-sulfamoylbenzyl)-1H-pyrazol-1-yl)thiazole-4-carboxylic acid [Compound 523]”, the IC50 with MiaPaCa2 cells is 1000 to 10000 nM; on Human LDHA, 100 to 1000 nM. On to `NS(=O)(=O)c1ccc(Cc2c(-c3ccc(F)c(OC4CC4)c3)nn(-c3nc(C(=O)O)cs3)c2CC2CC2)cc1F` [Compound 471, 2-(3-(3-cyclopropoxy-4-fluorophenyl)-5-(cyclopropylmethyl)-4-(3-fluoro-4-sulfamoylbenzyl)-1H-pyrazol-1-yl)thiazole-4-carboxylic acid], for which, at Human LDHA, the concentration for half-maximal inhibition (IC50) is < 100 nM. For the compound `NS(=O)(=O)c1ccc(Cc2c(-c3cccc(-c4ccccc4)c3)nn(-c3nc(C(=O)O)cs3)c2C(F)(F)F)cc1` [Compound 42, 2-(3-([1,1′-biphenyl]-3-yl)-4-(4-sulfamoylbenzyl)-5-(trifluoromethyl)-1H-pyrazol-1-yl)thiazole-4-carboxylic acid], the “F (fraction of the dose that enters systemic circulation)” value in data set [1] was 34%.

As usually defined, the Cmax is the highest concentration seen after dosing. By IC50 is commonly meant the midpoint of a concentration-inhibition curve.
